Test results published in patent US8324234B2, “Method for inhibiting melanin production and whitening skin with pyrimidylpyrazole compounds or pharmaceutically acceptable salts thereof” (Shiseido Company Ltd., priority 2008, dated 2012).

Test system: Mouse B16 melanoma cells
Assay: Melanin production inhibition test (quantification of melanin)
Type: cell-based
Conditions: for Inhibitory effect on melanin production: class of minimum non-cytotoxic concentration giving melanin amount 80% or less of solvent group, B16 cells, three days after addition; for Minimum concentration (%): minimum concentration at which an inhibitory effect on melanin production was significantly exhibited in melanoma B16 cells
Method: A test for melanin production inhibition by the compounds of the formula (1) was conducted. The test method is as follows.
Melanin Production Inhibition Test
(1) Inoculation of Cells and Addition of Test Substances
Mouse B16 melanoma cells were inoculated in a six well plate at 100,000 cells/well. The next day, test substance solutions (solvent: DMSO) were added.
(3) Quantification of Melanin
The cells after the cell proliferation test were washed with PBS three times, and then lysed by addition of 200 μL of 1M NaOH to measure an absorbance at 475 nm. Using the value thus measured as a relative value of the melanin amount, a ratio of the melanin amount (%) of the test substance-added group to the test substance-absent group (group in which only the solvent was added) was calculated. The lower the ratio of the melanin amount, the higher the melanin production-inhibitory effect. […] The inhibitory effect on melanin production was evaluated according to the following criteria.
⊚: the minimum concentration for inhibition of melanin production was 1 ppm or less.
◯: the minimum concentration for inhibition of melanin production was more than 1 ppm and 10 ppm or less.

| Structure (SMILES) | Inhibitory effect on melanin production | Minimum concentration (%) |
| --- | --- | --- |
| Cc1cc(C)nc(-n2nc(C)cc2C)n1.Cl [Compound 2, 2-(3,5-dimethylpyrazol-1-yl)-4,6-dimethylpyrimidine hydrochloride] | ⊚ (the minimum concentration for inhibition of melanin production was 1 ppm or less) | – |
| Cc1cc(C)n(-c2nc(C)c(C)c(C)n2)n1 [Compound 5, 2-(3,5-dimethylpyrazol-1-yl)-4,5,6-trimethylpyrimidine] | ⊚ (the minimum concentration for inhibition of melanin production was 1 ppm or less) | – |
| CCc1cc(CC)n(-c2nc(C)cc(C)n2)n1 [Compound 3] | ⊚ (the minimum concentration for inhibition of melanin production was 1 ppm or less) | 3 × 10^−6% |
| Cc1cc(C)nc(-n2nc(C)cc2C)n1 [Compound 1, 2-(3,5-dimethylpyrazol-1-yl)-4,6-dimethylpyrimidine] | ⊚ (the minimum concentration for inhibition of melanin production was 1 ppm or less) | 1 × 10^−6% |
| Cc1cc(C)nc(-n2nc(C)c(C)c2C)n1 [Compound 4] | ⊚ (the minimum concentration for inhibition of melanin production was 1 ppm or less) | 3 × 10^−6% |
